Values quoted from earlier work, collected in US6525025B2, “Gamma-ketoacid dipeptides as inhibitors of caspase-3” (Merck Frosst Canada & Co., priority 2000, dated 2003).

Tests used:
caspase-1 = biological target: T1, caspase-1 (Homo sapiens, UniProt P29466)
T1 sequence (P29466 120-297 limits assumed): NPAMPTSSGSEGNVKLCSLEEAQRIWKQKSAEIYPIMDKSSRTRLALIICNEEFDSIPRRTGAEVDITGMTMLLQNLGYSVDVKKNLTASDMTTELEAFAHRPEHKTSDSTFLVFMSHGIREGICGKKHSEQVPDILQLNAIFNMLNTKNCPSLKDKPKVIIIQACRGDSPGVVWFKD
T1 sequence (P29466 317-404 limits assumed): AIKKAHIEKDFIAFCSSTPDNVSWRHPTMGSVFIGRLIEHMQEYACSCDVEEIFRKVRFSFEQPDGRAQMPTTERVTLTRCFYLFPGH

caspase-3 = biological target: T2, caspase-3 (Homo sapiens, UniProt P42574)
T2 sequence (P42574 29-175 limits assumed): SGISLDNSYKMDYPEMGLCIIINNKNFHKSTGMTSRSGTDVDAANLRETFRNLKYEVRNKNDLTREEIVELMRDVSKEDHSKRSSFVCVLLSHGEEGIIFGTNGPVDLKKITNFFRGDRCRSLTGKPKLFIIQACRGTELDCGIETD
T2 sequence (P42574 176-277 limits assumed): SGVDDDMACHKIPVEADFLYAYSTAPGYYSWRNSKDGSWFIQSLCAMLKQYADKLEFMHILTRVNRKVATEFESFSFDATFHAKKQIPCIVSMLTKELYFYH

**Q.** Which results are given for Ac-YVAD-CHO?
**A.** Ki (caspase-1): < 0.001 µM; Ki (caspase-3): 12 µM
